# Data: patent US20210395241A1, “NLRP MODULATORS” (Novartis AG, priority 2018, published 2021)
# pIC50: −log10 of the molar value.
# Tested on: IL-1β production in PMA-differentiated THP-1 cells
# Assay: IL-1β production in PMA-differentiated THP-1 cells stimulated with gramicidin (hTHP-1 assay)
# Type: cell-based
# Details: Homo sapiens, gramicidin 5 μM, 2% fetal bovine serum, class symbols
# Experimental: Procedure 1: IL-1β Production in PMA-Differentiated THP-1 Cells Stimulated with Gramicidin.
# THP-1 cells were purchased from the American Type Culture Collection and sub-cultured according to instructions from the supplier. Cells were cultured in complete RPMI 1640 (containing 10% heat inactivated FBS, penicillin (100 units/ml) and streptomycin (100 μg/ml)), and maintained in log phase prior to experimental setup. Prior to the experiment, compounds were dissolved in dimethyl sulfoxide (DMSO) to generate a 30 mM stock. The compound stock was first pre-diluted in DMSO to 3, 0.34, 0.042 and 0.0083 mM intermediate concentrations and subsequently spotted using Echo550 liquid handler into an empty 384-well assay plate to achieve desired final concentration (e.g. 100, 33, 11, 3.7, 1.2, 0.41, 0.14, 0.046, 0.015, 0.0051, 0.0017 μM). DMSO was backfilled in the plate to achieve a final DMSO assay concentration of 0.37%. The plate was then sealed and stored at room temperature until required.
# THP-1 cells were treated with PMA (Phorbol 12-myristate 13-acetate) (20 ng/ml) for 16-18 hours. On the day of the experiment the media was removed and adherent cells were detached with trypsin for 5 minutes. Cells were then harvested, washed with complete RPMI 1640, spun down, and resuspended in RPMI 1640 (containing 2% heat inactivated FBS, penicillin (100 units/ml) and streptomycin (100 μg/ml). The cells were plated in the 384-well assay plate containing the spotted compounds at a density of 50,000 cells/well (final assay volume 50 μl). Cells were incubated with compounds for 1 hour and then stimulated with gramicidin (5 μM) (Enzo) for 2 hours. Plates were then centrifuged at 340 g for 5 min. Cell free supernatant (40 μL) was collected using a 96-channel PlateMaster (Gilson) and the production of IL-1β was evaluated by HTRF (cisbio). The plates were incubated for 18 h at 4° C. and read using the preset HTRF program (donor emission at 620 nm, acceptor emission at 668 nm) of the SpectraMax i3x spectrophotometer (Molecular Devices, software SoftMax 6). A vehicle only control and a dose titration of CRID3 (100-0.0017 μM) were run concurrently with each experiment. Data was normalized to vehicle-treated samples (equivalent to 0% inhibition) and CRID3 at 100 μM (equivalent to 100% inhibition).
# Procedure 2: IL-1β Production in PMA-Differentiated THP-1 Cells Stimulated with Gramicidin.
# THP-1 cells were purchased from the American Type Culture Collection and sub-cultured according to instructions from the supplier. Prior to experiments, cells were cultured in complete RPMI 1640 (containing 10% heat inactivated FBS, penicillin (100 units/ml) and streptomycin (100 μg/ml)), and maintained in log phase prior to experimental setup. Prior to the experiment THP-1 were treated with PMA (Phorbol 12-myristate 13-acetate) (20 ng/ml) for 16-18 hours. Compounds were dissolved in dimethyl sulfoxide (DMSO) to generate a 30 mM stock. On the day of the experiment the media was removed and adherent cells were detached with trypsin for 5 minutes. Cells were then harvested, washed with complete RPMI 1640, spun down, resuspended in RPMI 1640 (containing 2% heat inactivated FBS, penicillin (100 units/ml) and streptomycin (100 μg/ml). The cells were plated in a 384-well plate at a density of 50,000 cells/well (final assay volume 50 μl). Compounds were first dissolved in assay medium to obtain a 5× top concentration of 500 μM. 10 step dilutions (1:3) were then undertaken in assay medium containing 1.67% DMSO. 5× compound solutions were added to the culture medium to achieve desired final concentration (e.g. 100, 33, 11, 3.7, 1.2, 0.41, 0.14, 0.046, 0.015, 0.0051, 0.0017 μM). Final DMSO concentration was at 0.37%. Cells were incubated with compounds for 1 hour and then stimulated with gramicidin (5 μM) (Enzo) for 2 hours. Plates were then centrifuged at 340 g for 5 min. […]
row,Compound,pIC50
1,CC(C)c1cc(C#N)c(F)c(C(C)C)c1CC(=O)NS(=O)(=O)c1ccc(C(C)(C)O)c(CO)c1 [Compound 138],5.30 to 6.00
2,CNS(=O)(=O)c1ccc(S(=O)(=O)NC(=O)Cc2c(C(C)C)cc(C#N)c(F)c2C(C)C)cc1CO [Compound 128],6.00 to 6.70
3,COc1cc(S(=O)(=O)NCCCO)ccc1S(=O)(=O)NC(=O)Cc1c(C(C)C)cc(C#N)c(F)c1C(C)C [Compound 103],5.30 to 6.00
4,CC(C)c1c(F)c(C#N)cc(C2CC2)c1CC(=O)NS(=O)(=O)c1sc(C(C)(C)O)nc1CO [Compound 105],5.30 to 6.00
5,CNS(=O)(=O)c1ccc(S(=O)(=O)NC(=O)Cc2c(C(C)C)cc(C#N)c(F)c2C(C)C)c(C(=O)OC)c1 [Compound 120],4.52 to 5.30
6,CC(C)c1cc(C#N)c(F)c(C(C)C)c1CC(=O)NS(=O)(=O)c1sc(C(C)(C)O)nc1CO [Compound 136],6.00 to 6.70
7,Cc1cc(C(C)(C)O)c(CO)cc1S(=O)(=O)NC(=O)Cc1c(C(C)C)cc(C#N)cc1C(C)C [Compound 123],4.52 to 5.30
8,CC(C)c1c(F)c(C#N)c(F)c(C(C)C)c1CC(=O)NS(=O)(=O)c1sc(C(C)(C)O)nc1CO [Compound 135],6.00 to 6.70
9,CC(C)c1cc(-c2ccc3c(c2)OC(F)(F)O3)cc(C(C)C)c1CC(=O)NS(=O)(=O)c1sc(C(C)(C)O)nc1CO [Compound 142],7.40 to 8.10
10,CC(C)c1cc(C#N)cc(C(C)C)c1CC(=O)NS(=O)(=O)c1cc(CO)c(C(C)(C)O)cc1F [Compound 130],5.30 to 6.00
11,CC(C)c1cc(C#N)c(F)c(C(C)C)c1CC(=O)NS(=O)(=O)c1sc(C(C)(C)O)nc1CCO [Compound 108],6.00 to 6.70
12,CC(C)c1cc(C#N)c(F)c(C(C)C)c1CC(=O)NS(=O)(=O)c1cc(CO)c(C(C)(C)O)cc1F [Compound 125],5.30 to 6.00
13,CNS(=O)(=O)c1ccc(S(=O)(=O)NC(=O)Cc2c(C(C)C)cc(C#N)c(F)c2C(C)C)c(O)c1 [Compound 107],6.00 to 6.70
14,CC(C)c1cc2c(c(C(C)C)c1CC(=O)NS(=O)(=O)c1sc(C(C)(C)O)nc1CO)COC2 [Compound 102],5.30 to 6.00
15,CC(C)c1ccc(C#N)c(C(C)C)c1CC(=O)NS(=O)(=O)c1sc(C(C)(C)O)nc1CO [Compound 104],4.52 to 5.30
16,CC(C)c1cc(C#N)cc(C(C)C)c1CC(=O)NS(=O)(=O)c1sc(C(C)(C)O)nc1CO [Compound 134],5.30 to 6.00

row,Compound,pIC50
1,CNS(=O)(=O)c1ccc(S(=O)(=O)NC(=O)Cc2c(C(C)C)cc(C#N)c(F)c2C(C)C)c(OC)c1 [Compound 117],6.00 to 6.70
2,CNS(=O)(=O)c1ccc(S(=O)(=O)NC(=O)Cc2c(C(C)C)cc(COC)cc2C(C)C)c(CO)c1 [Compound 116],5.30 to 6.00
3,CC(C)c1cc(-c2ccc3c(c2)COCC3)cc(C(C)C)c1CC(=O)NS(=O)(=O)c1sc(C(C)(C)O)nc1CO [Compound 101],5.30 to 6.00
4,CNC(=O)c1cc(S(=O)(=O)NC(=O)Cc2c(C(C)C)cc(C#N)c(F)c2C(C)C)ccc1S(=O)(=O)NC [Compound 132],4.52 to 5.30
5,CC(C)c1cc(C#N)c(F)c(C(C)C)c1CC(=O)NS(=O)(=O)c1ccc(S(N)(=O)=O)c(CO)c1 [Compound 131],5.30 to 6.00
6,CC(C)Cc1cc(C#N)cc(C(C)C)c1CC(=O)NS(=O)(=O)c1sc(C(C)(C)O)nc1CO [Compound 122],5.30 to 6.00
7,CNS(=O)(=O)c1cc(CO)cc(S(=O)(=O)NC(=O)Cc2c(C(C)C)cc(C#N)c(F)c2C(C)C)c1 [Compound 129],5.30 to 6.00
8,CCC(C)c1cc(C#N)cc(C(C)C)c1CC(=O)NS(=O)(=O)c1sc(C(C)(C)O)nc1CO (stereo not drawn) [Compound 119],6.00 to 6.70
9,COCc1cc(C(C)C)c(CC(=O)NS(=O)(=O)c2sc(C(C)(C)O)nc2CO)c(C(C)C)c1 [Compound 118],5.30 to 6.00
10,CNS(=O)(=O)c1ccc(S(=O)(=O)NC(=O)Cc2c(C(C)C)cc(C#N)c(F)c2C(C)C)c(CO)c1 [Compound 127],6.00 to 6.70
11,CC(C)c1cc(C#N)cc(C(C)C)c1CC(=O)NS(=O)(=O)c1ccc(CN(C)C)c(CO)c1 [Compound 137],4.52 to 5.30
12,CC(C)c1cncc(C(C)C)c1CC(=O)NS(=O)(=O)c1sc(C(C)(C)O)nc1CO [Compound 109],4.52 to 5.30
13,CC(C)c1cc(C#N)c(F)c(C(C)C)c1CC(=O)NS(=O)(=O)c1ccc(CN(C)C)c(CO)c1 [Compound 133],5.30 to 6.00
14,COc1cc(S(=O)(=O)NCCO)ccc1S(=O)(=O)NC(=O)Cc1c(C(C)C)cc(C#N)c(F)c1C(C)C [Compound 106],4.52 to 5.30
15,CNS(=O)(=O)c1ccc(S(=O)(=O)NC(=O)Cc2c(C(C)C)cc(C#N)c(F)c2C(C)C)c(C(N)=O)c1 [Compound 111],4.52 to 5.30
16,CNS(=O)(=O)c1ccc(S(=O)(=O)NC(=O)Cc2c(C(C)C)cc(COC3CCCC3)cc2C(C)C)c(CO)c1 [Compound 140],6.70 to 7.40

# Same assay, conditions: Homo sapiens, gramicidin 5 μM, 2% fetal bovine serum, given as numeric bound
row,Compound,pIC50
1,CC(C)c1cc(C#N)c(F)c(C(C)C)c1CC(=O)NS(=O)(=O)c1ccc(S(N)(=O)=O)cc1CO [Compound 126],< 4.00
2,CNS(=O)(=O)c1ccc(S(=O)(=O)NC(=O)Cc2c(C(C)C)cc(C#N)c(F)c2C(C)C)c(C(=O)O)c1 [Compound 114],< 4.00
3,CC(C)c1cc(C#N)c(F)c(C(C)C)c1CC(=O)NS(=O)(=O)c1ccc(S(=O)(=O)NC(C)(C)C)cc1CO [Compound 124],< 4.00
4,CNS(=O)(=O)c1ccc(S(=O)(=O)NC(=O)Cc2c(C(C)C)cc(C#N)c(F)c2C(C)C)c(C(=O)N(C)C)c1 [Compound 112],< 4.00

# Tested on: not listed separately
# Assay: Colon pharmacokinetics in mice
# Type: in vivo
# Details: 30 mg/kg oral gavage in 0.5% methyl-cellulose in water, male C57BL/6 mouse, colon conc. to plasma conc. ratio at 8 h; read-out: Mouse TD Colon/Plasma @ 8 h
# Experimental: Assay 2: Colon Pharmacokinetics in Mice
# The test compound was formulated in 0.5% methyl-cellulose in water and dosed via oral gavage at 30 mg/kg to Male C57BL/6 Mouse. At various time points (typically 15 min, 30 min, 1, 2, 4, 6 and 8 h) post dosing, blood samples were removed via cardiac […] puncture and intact colons were excised from the […]. Blood samples were centrifuged at 1500×g for 15 min to collect plasma. At the terminal time point each individual animal is anaesthetized, abdominal cavity is opened and from 2 cm below the caecum a 4 cm sample of the colon is dissected, cut open on the longitudinal axis and the solid contents removed by flushing with 2 mL of physiological fluid. The colon was further washed by putting it in 5 mL of physiological saline and shaken for 1 minute. The colon was pet dry weighed and transferred in 2 mL tubes. Colon will be weighted and homogenized with water by tissue weight (g) to water volume (mL) at ratio 1:3 before analysis. The actual concentration is the detected value multiplied by the dilution factor. A colon to plasma ratio was determined as the ratio of the colon conc. to the plasma conc. in pg hr/g. at 8 h time point.
row,Compound,Kp at 8 h
1,CNS(=O)(=O)c1ccc(S(=O)(=O)NC(=O)Cc2c(C(C)C)cc(C#N)c(F)c2C(C)C)cc1CO [Compound 128],1180
2,CNS(=O)(=O)c1ccc(S(=O)(=O)NC(=O)Cc2c(C(C)C)cc(C#N)c(F)c2C(C)C)c(OC)c1 [Compound 117],3380
3,CC(C)Cc1cc(C#N)cc(C(C)C)c1CC(=O)NS(=O)(=O)c1sc(C(C)(C)O)nc1CO [Compound 122],1480
4,CCC(C)c1cc(C#N)cc(C(C)C)c1CC(=O)NS(=O)(=O)c1sc(C(C)(C)O)nc1CO (stereo not drawn) [Compound 119],6720
5,CNS(=O)(=O)c1ccc(S(=O)(=O)NC(=O)Cc2c(C(C)C)cc(C#N)c(F)c2C(C)C)c(CO)c1 [Compound 127],197
6,CNS(=O)(=O)c1ccc(S(=O)(=O)NC(=O)Cc2c(C(C)C)cc(COC3CCCC3)cc2C(C)C)c(CO)c1 [Compound 140],558
